Reference: ChEMBL document CHEMBL4665820, “Discovery of VU6027459: A First-in-Class Selective and CNS Penetrant mGlu Positive Allosteric Modulator Tool Compound” (ACS Med Chem Lett, 2020)
Blank lines part the entries; values can stand above or below the compound they belong to.

Tests used:
[1] = molecular target: Metabotropic glutamate receptor 7 (Rattus norvegicus) (UniProt P35400); test: (§1) Positive allosteric modulation of rat mGlu7 receptor expressed in HEK293 cells co-expressing Gai5 assessed as potentiation of L-AP4-induced calcium mobilization preincubated for 140 secs and treated with EC20 L-AP4 for 125 secs and followed by subsequent addition of EC80 L-AP4 by Fluo-4-AM dye based fluorescence assay relative to maximal induction of L-AP4; assay type: functional, cell-based; conditions: filed as positive allosteric modulator, time 140.0 sec
Sequence of Metabotropic glutamate receptor 7 (Rattus norvegicus) (P35400 whole entry): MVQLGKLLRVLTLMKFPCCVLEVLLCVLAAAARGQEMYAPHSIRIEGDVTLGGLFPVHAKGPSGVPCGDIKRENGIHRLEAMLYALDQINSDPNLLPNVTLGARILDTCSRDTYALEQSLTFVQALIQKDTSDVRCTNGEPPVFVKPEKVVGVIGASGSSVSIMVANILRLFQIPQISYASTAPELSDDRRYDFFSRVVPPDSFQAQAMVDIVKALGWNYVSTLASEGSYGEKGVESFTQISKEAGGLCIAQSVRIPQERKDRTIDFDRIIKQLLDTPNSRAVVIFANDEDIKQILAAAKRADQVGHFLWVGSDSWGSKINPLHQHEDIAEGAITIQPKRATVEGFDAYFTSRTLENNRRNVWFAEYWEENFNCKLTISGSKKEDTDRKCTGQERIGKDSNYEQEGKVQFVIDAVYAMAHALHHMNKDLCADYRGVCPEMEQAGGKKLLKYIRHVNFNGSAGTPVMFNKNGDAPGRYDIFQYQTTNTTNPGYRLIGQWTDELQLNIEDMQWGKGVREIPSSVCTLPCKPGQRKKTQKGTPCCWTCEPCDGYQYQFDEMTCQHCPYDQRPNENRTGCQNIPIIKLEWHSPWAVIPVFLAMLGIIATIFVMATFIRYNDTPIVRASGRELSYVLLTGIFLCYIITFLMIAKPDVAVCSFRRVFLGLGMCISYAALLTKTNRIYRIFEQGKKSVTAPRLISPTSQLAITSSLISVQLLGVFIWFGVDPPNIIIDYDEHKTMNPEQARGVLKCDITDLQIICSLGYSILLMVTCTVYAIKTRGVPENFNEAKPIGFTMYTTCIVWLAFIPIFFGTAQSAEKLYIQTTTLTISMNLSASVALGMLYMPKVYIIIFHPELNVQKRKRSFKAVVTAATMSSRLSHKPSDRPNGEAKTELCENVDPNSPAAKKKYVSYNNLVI

[2] = molecular target: T1, Metabotropic glutamate receptor 7 (Rattus norvegicus, UniProt P35400); test: as §1, with “assay” for “assay relative to maximal induction of L-AP4”; assay type: functional, cell-based
T1 sequence (P35400 whole entry): as above

[3] = Fraction unbound in mouse plasma at 5 uM incubated for 4 hrs by equilibrium dialysis based LC-MS/MS analysis; assay type: ADME, cell-free
[4] = Fraction unbound in mouse brain at 5 uM incubated for 6 hrs by equilibrium dialysis based LC-MS/MS analysis; assay type: ADME, tissue-based
[5] = molecular target: T1, Metabotropic glutamate receptor 7; test: Positive allosteric modulation of rat mGlu7 expressed in HEK293 cells co- expressing GIRK assessed as potentiation of L-AP4-induced thallium flux incubated for 140 sec by FluoZin2-AM dye based fluorescence analysis; assay type: cell-based
[6] = Hepatic intrinsic clearance in mouse liver microsomes at 1 uM preincubated for 5 mins followed by NADPH addition and measured up to 45 mins by LC-MS/MS analysis; assay type: ADME, Microsome; conditions: read-out: CLH
[7] = molecular target: Sodium-dependent dopamine transporter (Homo sapiens, UniProt Q01959); test: Displacement of […] from recombinant human Dopamine transporter after 120 mins by scintillation counting analysis; assay type: ADME
Sequence of Sodium-dependent dopamine transporter (Q01959 whole entry): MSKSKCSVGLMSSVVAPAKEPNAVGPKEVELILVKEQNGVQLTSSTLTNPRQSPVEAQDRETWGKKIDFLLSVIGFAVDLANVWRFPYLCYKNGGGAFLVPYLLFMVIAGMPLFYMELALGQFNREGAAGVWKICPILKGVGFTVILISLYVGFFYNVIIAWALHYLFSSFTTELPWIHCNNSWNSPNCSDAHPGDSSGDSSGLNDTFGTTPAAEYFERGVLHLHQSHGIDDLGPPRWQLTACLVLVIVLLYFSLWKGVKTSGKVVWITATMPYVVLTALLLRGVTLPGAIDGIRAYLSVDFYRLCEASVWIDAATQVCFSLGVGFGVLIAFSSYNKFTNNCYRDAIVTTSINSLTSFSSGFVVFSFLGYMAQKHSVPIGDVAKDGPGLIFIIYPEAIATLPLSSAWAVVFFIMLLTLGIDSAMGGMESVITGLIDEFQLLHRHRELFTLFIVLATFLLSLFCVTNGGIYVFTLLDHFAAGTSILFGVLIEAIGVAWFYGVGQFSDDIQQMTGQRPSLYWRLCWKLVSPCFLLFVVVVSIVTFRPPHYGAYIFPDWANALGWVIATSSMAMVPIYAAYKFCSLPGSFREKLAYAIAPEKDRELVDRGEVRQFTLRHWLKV

[8] = Unbound plasma to brain permeability coefficient, Kp of the compound in Sprague-Dawley rat at 0.2 mg/kg, iv measured after 0.25 hrs by LC-MS/MS analysis; assay type: ADME, organism-based; conditions: read-out: K(p,uu,brain)
[9] = molecular target: Metabotropic glutamate receptor 7 (Rattus norvegicus) (UniProt P35400); test: Positive allosteric modulation of rat mGlu7 expressed in HEK293 cells co- expressing GIRK assessed as potentiation of L-AP4-induced thallium flux incubated for 140 sec by FluoZin2-AM dye based fluorescence analysis relative to maximal induction of L-AP4; assay type: cell-based; conditions: filed as positive allosteric modulator
[10] = Hepatic intrinsic clearance in rat liver microsomes at 1 uM preincubated for 5 mins followed by NADPH addition and measured up to 45 mins by LC-MS/MS analysis; assay type: ADME, Microsome; conditions: read-out: CLH
[11] = Plasma to brain permeability coefficient, Kp of the compound in Sprague-Dawley rat at 0.2 mg/kg, iv measured after 0.25 hrs by LC-MS/MS analysis; assay type: ADME, organism-based
[12] = Fraction unbound in rat brain at 5 uM incubated for 6 hrs by equilibrium dialysis based LC-MS/MS analysis; assay type: ADME, tissue-based
[13] = Fraction unbound in rat plasma at 5 uM incubated for 4 hrs by equilibrium dialysis based LC-MS/MS analysis; assay type: ADME, cell-free
[14] = Unbound plasma to brain permeability coefficient, Kp of the compound in CD-1 mouse at 10 mg/kg, ip measured after 0.5 hrs by LC-MS/MS analysis; assay type: ADME, organism-based; conditions: read-out: K(p,uu,brain)
[15] = molecular target: Metabotropic glutamate receptor 5 (Homo sapiens, UniProt P41594); test: Positive allosteric modulation of mGlu5 receptor (unknown origin)
[16] = molecular target: dopamine transporter (DAT) (Homo sapiens, UniProt Q01959); test: Displacement of […] from recombinant human Dopamine transporter at 10 uM after 120 mins by scintillation counting analysis relative to control; assay type: ADME
Sequence of dopamine transporter (DAT) (Q01959 whole entry): as above

[17] = molecular target: Metabotropic glutamate receptor 3 (Homo sapiens, UniProt Q14832); test: Positive allosteric modulation of mGlu3 receptor (unknown origin)
Sequence of Metabotropic glutamate receptor 3 (Q14832 whole entry): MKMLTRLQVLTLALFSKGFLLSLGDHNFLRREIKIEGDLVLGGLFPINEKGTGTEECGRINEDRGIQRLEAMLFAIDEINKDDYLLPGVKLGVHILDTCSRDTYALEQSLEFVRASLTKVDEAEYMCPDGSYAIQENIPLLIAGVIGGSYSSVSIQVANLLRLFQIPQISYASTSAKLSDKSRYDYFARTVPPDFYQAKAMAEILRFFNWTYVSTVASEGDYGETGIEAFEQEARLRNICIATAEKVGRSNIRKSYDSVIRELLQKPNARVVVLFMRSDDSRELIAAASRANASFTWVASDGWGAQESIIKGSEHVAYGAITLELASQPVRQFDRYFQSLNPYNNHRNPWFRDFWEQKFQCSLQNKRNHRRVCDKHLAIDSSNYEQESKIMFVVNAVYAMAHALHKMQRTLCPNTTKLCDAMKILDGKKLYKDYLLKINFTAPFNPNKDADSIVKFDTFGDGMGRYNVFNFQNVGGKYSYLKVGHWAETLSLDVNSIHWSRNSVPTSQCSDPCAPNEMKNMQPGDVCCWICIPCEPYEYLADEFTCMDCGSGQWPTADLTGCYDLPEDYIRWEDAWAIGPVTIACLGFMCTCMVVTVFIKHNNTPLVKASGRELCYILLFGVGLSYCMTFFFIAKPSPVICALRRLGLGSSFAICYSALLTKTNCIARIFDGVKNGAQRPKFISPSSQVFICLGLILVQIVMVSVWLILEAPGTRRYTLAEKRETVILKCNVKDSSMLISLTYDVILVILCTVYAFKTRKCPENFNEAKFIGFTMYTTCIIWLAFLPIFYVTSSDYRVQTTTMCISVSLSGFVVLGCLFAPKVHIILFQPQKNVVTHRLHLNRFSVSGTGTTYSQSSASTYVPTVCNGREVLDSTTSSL

[18] = Half-life in Sprague-Dawley rat at 1 mg/kg, iv and 10 mg/kg, po measured up to 24 hrs by LC-MS/MS analysis; assay type: ADME, organism-based; conditions: in vivo
[19] = molecular target: Metabotropic glutamate receptor 1 (Homo sapiens, UniProt Q13255); test: Positive allosteric modulation of mGlu1 receptor (unknown origin)
[20] = molecular target: Metabotropic glutamate receptor 8 (Homo sapiens, UniProt O00222); test: Positive allosteric modulation of mGlu8 receptor (unknown origin)
Sequence of Metabotropic glutamate receptor 8 (O00222 whole entry): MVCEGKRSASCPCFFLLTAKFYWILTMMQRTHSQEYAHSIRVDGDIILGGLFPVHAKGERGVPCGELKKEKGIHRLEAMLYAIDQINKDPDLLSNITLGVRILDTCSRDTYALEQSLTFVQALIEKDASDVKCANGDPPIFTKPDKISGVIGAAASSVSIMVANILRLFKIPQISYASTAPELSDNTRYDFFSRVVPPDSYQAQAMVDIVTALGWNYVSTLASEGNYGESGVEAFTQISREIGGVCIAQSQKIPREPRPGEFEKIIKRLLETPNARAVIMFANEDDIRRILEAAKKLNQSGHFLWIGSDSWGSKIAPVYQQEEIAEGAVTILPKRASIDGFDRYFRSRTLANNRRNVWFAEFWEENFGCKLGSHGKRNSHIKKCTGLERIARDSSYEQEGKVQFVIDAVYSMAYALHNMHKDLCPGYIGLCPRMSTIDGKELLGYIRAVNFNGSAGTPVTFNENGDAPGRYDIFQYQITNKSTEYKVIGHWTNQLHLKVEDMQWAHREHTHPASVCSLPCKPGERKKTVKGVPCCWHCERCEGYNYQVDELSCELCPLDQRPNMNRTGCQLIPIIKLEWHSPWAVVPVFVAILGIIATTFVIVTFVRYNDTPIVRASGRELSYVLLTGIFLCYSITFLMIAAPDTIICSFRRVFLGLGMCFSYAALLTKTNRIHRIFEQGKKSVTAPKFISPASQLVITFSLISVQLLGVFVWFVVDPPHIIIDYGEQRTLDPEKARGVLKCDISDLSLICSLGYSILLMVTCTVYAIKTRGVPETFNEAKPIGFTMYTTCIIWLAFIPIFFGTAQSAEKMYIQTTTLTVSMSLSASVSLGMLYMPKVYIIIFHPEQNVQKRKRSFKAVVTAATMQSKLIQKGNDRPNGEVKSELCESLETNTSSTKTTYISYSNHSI

[21] = molecular target: Metabotropic glutamate receptor 2 (Homo sapiens, UniProt Q14416); test: Positive allosteric modulation of mGlu2 receptor (unknown origin)
[22] = Oral bioavailability in Sprague-Dawley rat at 10 mg/kg measured upto 24 hrs by LC-MS/MS analysis; assay type: ADME, organism-based; conditions: in vivo
[23] = Plasma to brain permeability coefficient, Kp of the compound in CD-1 mouse at 10 mg/kg, ip measured after 0.5 hrs by LC-MS/MS analysis; assay type: ADME, organism-based
[24] = molecular target: Metabotropic glutamate receptor 4 (Homo sapiens, UniProt Q14833); test: Positive allosteric modulation of mGlu4 receptor (unknown origin)
Sequence of Metabotropic glutamate receptor 4 (Q14833 whole entry): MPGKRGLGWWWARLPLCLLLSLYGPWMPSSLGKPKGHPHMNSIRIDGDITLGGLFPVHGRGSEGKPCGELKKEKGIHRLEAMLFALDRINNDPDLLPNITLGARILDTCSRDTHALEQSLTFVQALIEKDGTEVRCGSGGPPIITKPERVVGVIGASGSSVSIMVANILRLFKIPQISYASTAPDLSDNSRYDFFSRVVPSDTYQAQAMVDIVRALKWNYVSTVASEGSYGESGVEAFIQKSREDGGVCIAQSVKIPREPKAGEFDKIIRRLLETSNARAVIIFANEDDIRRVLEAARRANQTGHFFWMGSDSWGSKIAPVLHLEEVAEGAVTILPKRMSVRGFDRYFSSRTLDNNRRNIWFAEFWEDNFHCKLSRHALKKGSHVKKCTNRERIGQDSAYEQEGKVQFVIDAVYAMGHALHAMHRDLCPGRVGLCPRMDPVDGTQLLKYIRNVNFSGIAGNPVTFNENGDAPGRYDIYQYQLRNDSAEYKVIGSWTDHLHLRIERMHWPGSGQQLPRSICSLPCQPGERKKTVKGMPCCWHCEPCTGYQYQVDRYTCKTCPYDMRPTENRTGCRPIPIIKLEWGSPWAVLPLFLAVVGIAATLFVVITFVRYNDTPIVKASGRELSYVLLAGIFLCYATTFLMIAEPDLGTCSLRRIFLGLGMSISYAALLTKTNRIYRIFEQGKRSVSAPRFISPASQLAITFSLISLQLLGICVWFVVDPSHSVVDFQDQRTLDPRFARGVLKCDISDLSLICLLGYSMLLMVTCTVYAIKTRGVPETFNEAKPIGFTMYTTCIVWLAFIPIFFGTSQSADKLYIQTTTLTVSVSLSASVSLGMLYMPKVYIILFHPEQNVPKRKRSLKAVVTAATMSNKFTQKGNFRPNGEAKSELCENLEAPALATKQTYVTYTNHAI

hERG (KCNH2) = hERG (KCNH2) (Homo sapiens, UniProt Q12809); test: Displacement of [3H]-Astemizole from human recombinant full length ERG channel at 10 uM incubated for 60 mins by scintillation counting analysis relative to control; conditions: probe [3H]-astemizole
[25] = molecular target: Sigma non-opioid intracellular receptor 1 (Homo sapiens, UniProt Q99720); test: Displacement of [3H]-Pentazocine from human recombinant sigma 1 receptor incubated for 120 mins by scintillation counting analysis relative to control
Sequence of Sigma non-opioid intracellular receptor 1 (Q99720 whole entry): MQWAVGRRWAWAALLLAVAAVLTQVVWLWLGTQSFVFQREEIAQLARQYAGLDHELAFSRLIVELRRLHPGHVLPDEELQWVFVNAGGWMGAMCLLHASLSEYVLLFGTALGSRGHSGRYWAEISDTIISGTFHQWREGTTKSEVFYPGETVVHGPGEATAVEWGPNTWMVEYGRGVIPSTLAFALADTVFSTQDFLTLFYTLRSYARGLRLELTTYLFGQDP

SMILES: N#Cc1cnc2c(N3CCOCC3)cccc2c1N1CCN(c2ccccc2F)CC1
fraction unbound at 4 h, 5 µM [3]: 0.01 | fraction unbound at 6 h, 5 µM [4]: 0.002 | EC50 [5]: 710 nM | CLint scaled at 1 µM [6]: 76.2 mL/min/kg | Ki [7]: > 10000 nM | Kp uu at 0.25 h [8]: 1.24 | Activity [9]: 29.5% | Activity [1]: 72% | CLint scaled at 1 µM [10]: 58.6 mL/min/kg | Kp at 0.25 h [11]: 6.84 | EC50 ([2]; read-out: EC50): 1300 nM | fraction unbound at 6 h, 5 µM [12]: 0.002 | fraction unbound at 4 h, 5 µM [13]: 0.01

SMILES: N#Cc1cnc2c(OC3CCC3)cccc2c1N1CCN(c2ccccc2F)CC1
Activity [1]: 67% | EC50 ([2]; read-out: EC50): 1800 nM

SMILES: N#Cc1cnc2c(OC3CCOC3)cccc2c1N1CCN(c2ccccc2F)CC1 (single isomer, unassigned; (+)) [listing 1 of 2 here]
Activity [1]: 85%

SMILES: N#Cc1cnc2c(-n3cncn3)cccc2c1N1CCN(c2ccccc2F)CC1
Activity [1]: 23% | EC50 ([2]; read-out: EC50): > 10000 nM

SMILES: N#Cc1cnc2c(-n3cccn3)cccc2c1N1CCN(c2ccccc2F)CC1
Activity [1]: 22% | EC50 ([2]; read-out: EC50): > 10000 nM

SMILES: N#Cc1cnc2c(N3CCCC3)cccc2c1N1CCN(c2ccccc2F)CC1
Activity [1]: 22% | EC50 ([2]; read-out: EC50): > 10000 nM

SMILES: N#Cc1cnc2c(OC3CCOC3)cccc2c1N1CCN(c2ccccc2F)CC1 (racemic)
fraction unbound at 4 h, 5 µM [3]: 0.02 | fraction unbound at 6 h, 5 µM [4]: 0.01 | EC50 [5]: 1000 nM | CLint scaled at 1 µM [6]: 75.8 mL/min/kg | Ki [7]: > 10000 nM | Kp uu at 0.25 h [8]: 0.79 | CLint scaled at 1 µM [10]: 54 mL/min/kg | Kp at 0.25 h [11]: 4.36 | EC50 ([2]; read-out: EC50): 1300 nM | fraction unbound at 6 h, 5 µM [12]: 0.006 | fraction unbound at 4 h, 5 µM [13]: 0.03

SMILES: N#Cc1cnc2c(OCC3CCOC3)cccc2c1N1CCN(c2ccccc2F)CC1 (stereo in doubt; (-)-20f)
EC50 ([2]; read-out: EC50): 1300 nM

SMILES: N#Cc1cnc2c(OC3CCOC3)cccc2c1N1CCN(c2ccccc2F)CC1 (single isomer, unassigned; (-))
Activity [1]: 70%

SMILES: N#Cc1cnc2c(OC3CCOC3)cccc2c1N1CCN(c2ccccc2F)CC1 (single isomer, unassigned; (+)) [listing 2 of 2 here]
EC50 ([2]; read-out: EC50): 1100 nM

The next lines start with results.

Activity [1]: 90% | EC50 ([2]; read-out: EC50): > 10000 nM
SMILES: N#Cc1cnc2c(O)cccc2c1N1CCN(c2ccccc2F)CC1

fraction unbound at 4 h, 5 µM [3]: 0.01 | Kp uu at 0.5 h [14]: 0.23 | EC50 [15]: > 30000 nM | fraction unbound at 6 h, 5 µM [4]: 0.001 | inhibition at 2 h, 10 µM [16]: < 50% | EC50 [5]: 990 nM | CLint scaled at 1 µM [6]: 84.4 mL/min/kg | Ki [7]: > 10000 nM | Kp uu at 0.25 h [8]: 0.96 | CLint scaled at 1 µM [10]: 46.9 mL/min/kg | EC50 [17]: > 30000 nM | half-life [18]: 7.5 h | Kp at 0.25 h [11]: 4.78 | EC50 [19]: > 30000 nM | EC50 ([2]; read-out: EC50): 1100 nM | EC50 ([2]; read-out: pEC50 (converted)): 1580 nM | fraction unbound at 6 h, 5 µM [12]: 0.002 | fraction unbound at 4 h, 5 µM [13]: 0.01 | EC50 [20]: > 10000 nM | EC50 [21]: > 30000 nM | bioavailability [22]: 69.5% | Kp at 0.5 h [23]: 2.74 | EC50 [24]: > 30000 nM | IC50 [25]: 3500 nM
SMILES: [2H]C([2H])([2H])Oc1cc(F)cc2c(N3CCN(c4ccccc4F)CC3)c(C#N)cnc12
inhibition at 1 h, 10 µM (hERG (KCNH2)): < 50%

IC50 [7]: 2200 nM | Activity [1]: 62% | EC50 ([2]; read-out: EC50): 1100 nM
SMILES: COc1c(F)c(F)cc2c(N3CCN(c4ccccc4F)CC3)c(C#N)cnc12

IC50 [7]: 4000 nM | Activity [1]: 35% | EC50 ([2]; read-out: EC50): > 10000 nM
SMILES: COc1ccc(F)c2c(N3CCN(c4ccccc4F)CC3)c(C#N)cnc12

fraction unbound at 4 h, 5 µM [3]: 0.004 | fraction unbound at 6 h, 5 µM [4]: 0.001 | EC50 [5]: 750 nM | CLint scaled at 1 µM [6]: 76.2 mL/min/kg | Ki [7]: > 10000 nM | Kp uu at 0.25 h [8]: 1 | Activity [9]: 54.5% | Activity [1]: 82% | CLint scaled at 1 µM [10]: 50.7 mL/min/kg | Kp at 0.25 h [11]: 4.99 | EC50 ([2]; read-out: EC50): 690 nM | fraction unbound at 6 h, 5 µM [12]: 0.001 | fraction unbound at 4 h, 5 µM [13]: 0.005
SMILES: CC(C)Oc1cc(F)cc2c(N3CCN(c4ccccc4F)CC3)c(C#N)cnc12

Activity [1]: 23% | EC50 ([2]; read-out: EC50): > 10000 nM
SMILES: N#Cc1cnc2c(OC3CCC3)cc(F)cc2c1N1CCN(c2ccccc2F)CC1

Activity [1]: 67% | EC50 ([2]; read-out: EC50): 1250 nM
SMILES: CC(C)Oc1cccc2c(N3CCN(c4ccccc4F)CC3)c(C#N)cnc12

Activity [1]: 68% | EC50 ([2]; read-out: EC50): > 10000 nM
SMILES: N#Cc1cnc2c(OC(F)F)cccc2c1N1CCN(c2ccccc2F)CC1
